# How the values were obtained:
# Swiss albino mice = experiment: MSU crystal-induced neutrophil recruitment (gout model, peritonitis); format: in vivo, mouse; conditions: 45 mg/kg i.p.
# Method: Male outbread Swiss albino mice (20-22 g body weight) were purchased from Banton and Kingsman (T.O. strain; Hull, Humberside) and maintained on a standard chow pellet diet with tap water ad libitum and a 12:00 h light/dark cycle. All animals were housed for 1 week prior to experimentation to allow body weight to reach 28-30 g.
# 1,1,1lb-dihydrobenzopyrano[4,3,2-de]isoquinolin-1-one was dissolved in 100% DMSO at room temperature at a concentration of 45 mg in 2 ml. The compound was then injected into the peritoneal cavity, so as each mouse received a single dose corresponding to 45 mg/2 ml/kg (e.g. 60 μl for a mouse of 30 g). […]
# MSU crystal-induced neutrophil recruitment was tested as follows. […] Peritonitis was induced by injection of 3 mg MSU crystals in 0.5 ml PBS (0.1 M, pH 7.4), and the recruitment of neutrophils into the cavity evaluated at the 6 h time point (Getting et al., 1997, J. Pharmacol. Exp. Ther. 283: 123-130). […]
# An aliquot (100 μl) of the lavage fluid was then diluted 1:10 in Turk's solution (0.01% crystal violet in 3% acetic acid). The samples were then vortexed and 10 μl of the stained cell solution were placed in a Neubauer haematocymometer and neutrophils numbers counted using a light microscope (Olympus B061). […]
# Data are shown for single mice, and also shown as mean±S.E. of (n) mice per group. Statistical differences were determined by ANOVA, plus Bonferroni test. […]
# rabbits = conditions: cited from earlier work
smiles,measurement,setting,value
"O=C1N=Cc2cccc3c2C1c1ccccc1O3 (stereo not shown) [1,11b-dihydrobenzopyrano[4,3,2-de]isoquinolin-1-one]",inhibition of cell influx vs. the vehicle group,Swiss albino mice; 6 h after MSU crystals,55%
same,"Neutrophils (10^6 per mouse), mean ± S.E.","Swiss albino mice; group C, MSU crystals (3 mg), 6 h, n=8, P < 0.05 vs. vehicle group B (6.30 ± 0.33)",2.85 ± 0.34 (8) * 10^6 per mouse
NC(=O)c1cccc(N)c1 [3-amino-benzamide],reduction in infarct size in the heart,"rabbits; single injection 10 mg/kg, one minute before occlusion or before reperfusion",32-42%
"Oc1cccc2c(O)nccc12 [1,5-dihydroxyisoquinoline]",reduction in infarct size,rabbits; single injection 1 mg/kg,38-48%
